Results as given in patent publication US9913870B2, “Method for stimulating AMP-activated protein kinase” (DHARMA BIOMEDICAL, LLC, priority 2012, dated 2018).
Entries after “also recorded” stand apart in the source; their conditions may differ.

Key:
HepG2 cells = assay: HDL and LDL/VLDL cholesterol quantification in HepG2 cells; assay type: cell-based, human
Procedure: HepG2 cells (2×106) were incubated with increasing concentrations of Glucodox (0-100 ug/ml) for 72 hours at 37° C. The cells, after washing with PBS, were lysed with methanol:choloroform […] solution. Both HDL an LDL fractions were separated and estimated using the HDL and LDL/VLDL quantification kit (MBL International Corporation, MA).

3T3-L1 adipocytes = assay: Glucose uptake in differentiated adipocytes; assay type: cell-based; conditions: 72 hours
Procedure: 3T3-LI preadipocytes were used for glucose uptake and they were differentiated in the same manner as for adipocyte staining. The differentiated adipocytes (0.5×10^6) were treated with increasing concentrations (2-100 μg/ml) of guggul extracts for 72 hours in DMEM medium containing 1 μM insulin. 2,4-Thiazolidinedione (0.005 μM-0.1 μM) was used as a positive control for comparison. After 72 hours, the medium was replaced with starving medium (DMEM without FBS) for 2 hours at 37° C. and then with 3 ml KRH buffer (136 mM NaCl, 4.7 mM KCl, 1.25 mM CaCl2, 1.25 mM Mg SO4, 10 mM Hepes, pH 7.4) with 1 uM insulin at 37° C. for 30 min. For glucose uptake, 4.5 mg/ml glucose was added into the KRH buffer and plates were incubated for another 15 min. The plates were washed 4 times with KRH buffer, cells were lysed with RIPA buffer (0.5 ml/plate). The protein concentration of the extract was estimated and 500 ug extract was used for glucose estimation using the assay kit from Sigma Chemical Co., MO. The absorbance of the reaction mixture was measured at 340 nm and glucose concentration calculated.

human elastase = assay: PMN-elastase expression ELISA in CCL-110 fibroblasts; assay type: cell-based; conditions: 24 hours
Procedure: CCL-110 skin fibroblast cells (10^6) were plated in EMEM containing 0.5% FBS and treated with increasing concentrations of GU-TC7 and CoQ10 for 24 hours in a CO2 incubator. The monolayer was lysed with 500 μL of RIPA buffer (50 mM Tris PH 7.4, 150 mM NaCl, 0.1% SDS, 0.5% Sodium deoxycholate, 1% Triton X-100 with one tablet for 25 mL of buffer) and protein concentration of the cellular extract was determined. Cellular extract (100 μg protein) was analyzed for the expression of human elastase using the PMN-Elastase ELISA kit form Alpco Immunoassays (Salem, N.H., U.S.A.).

CCL-110 skin fibroblasts = assay: Cytotoxicity assay (MTT, Cell Proliferation I kit); assay type: cell-based, human; conditions: up to 100 μg mL−1, 24 hours
Procedure: CCL-110 skin fibroblasts were cultured and plated at a density of 0.5×10^4 cells per well in 96-well tissue culture multiwell plates in EMEM medium. On the next day when cells were attached, they were treated with increasing concentrations (0-100 μg mL^−1) of GU-TC7 and CoQ10 (CoQ10 purchased from Sigma Chemical Co., St. Louis, Mo., U.S.A.) at 37° C. for 24 hours in a CO2 incubator maintained at 5% CO2 and 95% air. Cell proliferation assay was performed using the Cell Proliferation I kit (Roche Biochemicals, Indianapolis, Ind., U.S.A.) according to the manufacturer's protocol. The percentage survival of cells at each concentration was calculated based on the untreated control and plotted against drug concentrations (Cochrane, C. B. et al. “Anticancer effects of Annona glabra plant extracts in human leukemic cell lines” Anticancer Res., 2008, 28:965-971). Cytotoxicity assay was repeated three times with triplicate samples in each and mean values calculated.

type I collagen = assay: Collagen type I expression ELISA in CCL-110 fibroblasts; assay type: cell-based, human; conditions: 24 hours, increasing concentrations
Procedure: CCL-110 human fibroblast cells (0.5×10^6) were treated with increasing concentrations of GU-TC7 and CoQ10 for 24 hours in 0.5% starving medium. On the next day, the medium was completely removed, washed with phosphate buffered saline once and lysed with 500 μL of 0.05 M acetic acid (pH 2.8-3.0) and 50 μL of pepsin solution by incubating at 4° C. for 48 hours. Later, […] of 10×TBS (1 M Tris, 2 M NaCl, 50 mM CaCl2) was added, and pH was adjusted to 8.0 with 1 N NaOH, and 50 μL of human pancreatic elastase was added followed by the incubation for another 48 hours at 4° C. The cells were scraped and transferred to eppendorf tubes and centrifuged for 10 min at 10 000 rpm. The supernatant was transferred to a new eppendorf tube, and protein concentration of the extract was determined. The type I collagen in the extract was analyzed using the human type 1 collagen ELISA kit from MD Bio-products (St. Paul, […]., U.S.A.).

MMP-1 = MMP-1 expression ELISA in CCL-110 fibroblasts, with and without TNF-α; assay type: cell-based, human; design: MMP-1 expression compared to untreated CCL-110 cells: dose or concentration left out as unconfirmed; conditions: for MMP-1 protein expression: CCL-110 fibroblasts, 24 hours, 0-100 μg mL−1, without TNF-α
Procedure: CCL-110 skin fibroblast cells (10^5 mL^−1) were plated in 0.5% FBS containing EMEM for 24 hours for starvation and then treated with increasing concentrations of GU-TC7 and CoQ10 (0-100 μg mL^−1) for another 24 hours with and without the positive control ([…]). The medium was harvested and analyzed for MMP-1 (ng mL^−1) using the human MMP-1 ELISA kit from R&D Systems (Minneapolis, Minn., U.S.A.) according to the manufacturer's instructions. MMP-1 ELISA studies were repeated three times, with duplicate samples in each assay.

HSP70 = HSP70 expression ELISA in Menadione-stressed HepG2 cells; assay type: cell-based, human; conditions: 50 μM, 3 hours
Procedure: A human liver cell line (HepG2) was used to study the expression of HSP70 in GU-MCT treated cells. The cells (2×10^6/4 ml) were grown in Eagles minimal essential medium and treated with 50 μM Menadione (Vitamin K analogue) for 3 hours in order to induce stress in the presence or absence of increasing concentrations of GU-MCT (0-100 μg/ml). The cells were harvested by scraping and cell lysate prepared by homogenizing cells in 0.5 ml of lysis buffer (R&D systems, Minneapolis, Minn.). Protein concentration of cell lysate was estimated and 10 μg protein was used for ELISA. The ELISA kit from R&D systems, MN was used to analyze the HSP70 protein expression (pg/ml) in the cell extract. The percentage of change in HSP70 expression was calculated based on the expression in untreated sample (100%).

## CC[C@H](C)C(=O)O[C@H]1CCC=C2C=C[C@H](C)[C@H](CC[C@@H]3C[C@@H](O)CC(=O)O3)[C@H]21 [Mevastatin]
HepG2 cells
  HDL in cellular extracts and cell culture medium: not induced

## O=C1CSC(=O)N1 [2,4 Thiazolidinedione, 2,4-Thiazolidinedione]
3T3-L1 adipocytes
  glucose uptake (insulin sensitivity): more potent than the guggul extracts

## COC1=C(OC)C(=O)C(C/C=C(\C)CC/C=C(\C)CC/C=C(\C)CC/C=C(\C)CC/C=C(\C)CC/C=C(\C)CC/C=C(\C)CC/C=C(\C)CC/C=C(\C)CCC=C(C)C)=C(C)C1=O [CoQ10, coenzyme Q10]
Human elastase
  human elastase expression: no such inhibition was evident; also recorded: no inhibition of elastase at any evaluated concentration
CCL-110 skin fibroblasts
  cytotoxic effects on CCL-110 skin fibroblasts: no cytotoxic effects
CCL-110 skin fibroblasts; listed as Coenzyme Q10
  cytotoxic effects on CCL-110 skin fibroblasts: little cytotoxicity
Type I collagen
  type I collagen synthesis: inhibitory trend was noticed with increasing doses
Type I collagen; listed as Coenzyme Q10
  type I collagen synthesis: enhanced synthesis of type I collagen
MMP-1
  MMP-1 protein expression: inhibits MMP-1 at 5 μg mL^−1, the inhibition rate remained almost constant with increasing concentrations
MMP-1; listed as Coenzyme Q10
  MMP-1 protein expression: inhibition of MMP-1 expression

## TNF-α
MMP-1; TNF-α treatment
  MMP-1 expression compared to untreated CCL-110 cells: three times

## CC1=CC(=O)c2ccccc2C1=O [Menadione]
HSP70
  down regulation of HSP70 expression: 40%
